Among the test systems are NCI-H226 lung; NCI-H522 lung; SK-MEL-2 melanoma; SNB-19 CNS; SF-268 CNS; CAKI-1 renal; HT29 colon; SF-539 CNS; NCI/ADR-RES ovarian; MDA-MB-435.
Assay in all cases: NCI-60 cell line screen, 48 h

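Protocol summary: plate cells (96-well), add compound at 5 concentrations, incubate 48 h, interpolate endpoints linearly. Here, GI50 denotes the concentration required for 50% inhibition of growth. TGI is the concentration that stops growth completely.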 A value given as a limit tells only on which side of the number the result lay.

Turning to `O=C(Cc1nc2ccccc2s1)Nc1cccc(C(F)(F)F)c1`, the TGI worked out at 44.7 µM with NCI-H226 lung; 28.4 µM in the assay with NCI-H522 lung; 33.8 µM with SK-MEL-2 melanoma; 32.3 µM in the assay on SNB-19 CNS; 29.7 µM in the assay with SF-268 CNS; 31.6 µM with CAKI-1 renal. The TGI came out at 33.9 µM with HT29 colon and 33.4 µM in the assay with SF-539 CNS.
For `O=CC[C@H]1CCc2ccccc2C12CCC(=O)CC2`, the TGI with NCI-H226 lung, in the assay on NCI-H522 lung, in the assay on SK-MEL-2 melanoma, in the assay with SNB-19 CNS, in the assay with SF-268 CNS and in the assay on CAKI-1 renal was more than 100 µM in each case. Besides, the TGI in the assay on HT29 colon and in the assay with SF-539 CNS was more than 100 µM throughout.
With `COc1cc2c3c(c1OC)-c1c(ccc4c1OCO4)CC3(C#N)N(C(=O)c1ccccc1)CC2` (stereo unspecified), the TGI in the assay on NCI-H226 lung, with NCI-H522 lung, with SNB-19 CNS, in the assay on SF-268 CNS, with CAKI-1 renal and with HT29 colon was more than 100 µM throughout. Further, in the assay on SF-539 CNS, the TGI is more than 100 µM.
Regarding `O=[N+]([O-])c1cccc(C2ON2C2CCCCC2)c1` (stereo unspecified), the TGI with NCI-H522 lung came out at 33.5 µM; in the assay with SK-MEL-2 melanoma, 62.8 µM; with SNB-19 CNS, 84.5 µM; in the assay with SF-268 CNS, 51 µM; in the assay on CAKI-1 renal, 58.7 µM; with HT29 colon, 28 µM. The TGI in the assay on SF-539 CNS stood at 46.3 µM.
In the case of `CCCCS(=O)(=O)CCC(N)C(=O)O` (stereo unspecified), the TGI in the assay with NCI-H226 lung, in the assay with NCI/ADR-RES ovarian, in the assay on NCI-H522 lung, with SK-MEL-2 melanoma, in the assay on SNB-19 CNS and in the assay on SF-268 CNS was more than 100 µM in each case. In addition, the TGI with CAKI-1 renal, in the assay with HT29 colon and in the assay on SF-539 CNS was more than 100 µM throughout.
As for `COC(=O)CCC(=O)CC(=O)C(=O)Nc1c(Cl)cc([N+](=O)[O-])cc1Cl`, the TGI with NCI-H226 lung, with NCI-H522 lung, with SK-MEL-2 melanoma, with SNB-19 CNS, in the assay with SF-268 CNS and with CAKI-1 renal was more than 100 µM in each case. In addition, the TGI with HT29 colon and in the assay on SF-539 CNS was more than 100 µM in each case.
For `CCc1cccc(C(C)C)c1NC(=O)C(=O)C(CC(=O)Nc1ccc(Cl)c(Cl)c1)C(=O)OC` (stereo unspecified), the TGI with NCI-H226 lung, in the assay with NCI-H522 lung, in the assay on SK-MEL-2 melanoma, with SNB-19 CNS, with SF-268 CNS and in the assay with CAKI-1 renal was more than 100 µM throughout. For the same compound, the TGI with HT29 colon and in the assay on SF-539 CNS was more than 100 µM in each case.
As for `C[C@]1(CO)CCC[C@@]2(C)C1CC[C@H]1CC3C[C@]12CC[C@]3(C)O` (stereo partly specified), the TGI in the assay with NCI-H226 lung was more than 100 µM; with NCI-H522 lung it was 31.1 µM; in the assay on SNB-19 CNS it was more than 100 µM; in the assay on SF-268 CNS, more than 100 µM; with CAKI-1 renal, more than 100 µM; in the assay on HT29 colon it was more than 100 µM. In addition, in the assay on SF-539 CNS, the TGI is more than 100 µM.
As for `Clc1ccc(C2SCc3nc4ccccc4n32)cc1Cl` (stereo unspecified), the TGI was 41.3 µM in the assay with NCI-H226 lung; 25 µM in the assay with NCI-H522 lung; 35.5 µM in the assay with SK-MEL-2 melanoma; 22.4 µM in the assay with SNB-19 CNS; 37.6 µM in the assay with SF-268 CNS; 27 µM in the assay on CAKI-1 renal. Moreover, the TGI in the assay on HT29 colon was 29.9 µM; with SF-539 CNS, 32.3 µM.
`S=c1cc(S)sc2c1c(=S)sc1nc3ccccn3c(=S)c12`: the TGI in the assay on NCI-H226 lung, in the assay with SK-MEL-2 melanoma, in the assay with SNB-19 CNS, with CAKI-1 renal, in the assay with HT29 colon and in the assay with SF-539 CNS was more than 100 µM in each case.
For `Cc1cccc2c(=O)c3c(sc12)c(NCCNCCO)nc1ccccc13`, the GI50 is 1560 nM with NCI-H226 lung; 1630 nM with NCI-H522 lung; 1750 nM with MDA-MB-435; 1780 nM with SK-MEL-2 melanoma; 1540 nM in the assay with SF-268 CNS; 1250 nM in the assay on CAKI-1 renal. In addition, the GI50 in the assay with HT29 colon was 1400 nM; with SF-539 CNS, 1720 nM. The TGI in the assay on NCI-H226 lung was determined as 3.32 µM; in the assay with NCI-H522 lung, 3.54 µM; in the assay on MDA-MB-435, 3.25 µM; with SK-MEL-2 melanoma, 3.44 µM; in the assay with SF-268 CNS, 3.15 µM; with CAKI-1 renal it was 2.56 µM. For the same compound, the TGI stood at 3.13 µM in the assay with HT29 colon and 3.12 µM with SF-539 CNS.
For `COc1ccc(Nc2c3ccccc3nc3ccccc23)cc1`, the GI50 in the assay with NCI-H226 lung is 1200 nM; with NCI/ADR-RES ovarian it was 545 nM; in the assay with NCI-H522 lung it was 1130 nM; in the assay with SK-MEL-2 melanoma, 1290 nM; in the assay with SNB-19 CNS, 3.19 µM; with SF-268 CNS, 3630 nM. Also, the GI50 in the assay with CAKI-1 renal was 1210 nM; in the assay on HT29 colon, 454 nM; in the assay with SF-539 CNS, 2950 nM. Besides, the TGI with NCI-H226 lung worked out at 3.84 µM; in the assay with NCI/ADR-RES ovarian, 15.5 µM; in the assay with NCI-H522 lung it was 15.7 µM; in the assay on SK-MEL-2 melanoma, 11.3 µM; in the assay on SNB-19 CNS it was 18.3 µM; with SF-268 CNS, 19.1 µM. In addition, the values for the TGI with CAKI-1 renal, in the assay on HT29 colon and in the assay with SF-539 CNS were 10.4 µM, 2.71 µM and 14.6 µM, respectively.
As for `Fc1ccccc1C1CC(c2ccc3ccccc3c2)=Nc2ccccc2S1` (stereo unspecified), the TGI in the assay on NCI-H226 lung, in the assay with NCI-H522 lung, in the assay with SK-MEL-2 melanoma, in the assay on SNB-19 CNS, in the assay on SF-268 CNS and in the assay on CAKI-1 renal was more than 100 µM each time. In addition, the TGI with HT29 colon and in the assay on SF-539 CNS was more than 100 µM in each case.
Consider `O=C(CC1(O)C(=O)Nc2c(Cl)cc(Cl)cc21)c1cccc2ccccc12` (stereo unspecified), for which the TGI in the assay with NCI-H226 lung stood at 31.1 µM; in the assay with NCI-H522 lung, 28.9 µM; in the assay on SK-MEL-2 melanoma, 32.6 µM; in the assay with SNB-19 CNS, 27.9 µM; in the assay on SF-268 CNS, 40.4 µM; with CAKI-1 renal, 25.3 µM. Moreover, the values for the TGI in the assay with HT29 colon and in the assay with SF-539 CNS were 33.8 µM and 32.4 µM, respectively.

For the origin of these results see PubChem BioAssay (NCI).
